Assay results: patent publication US20110190503A1, “Thiazolopyridin-2-yloxy-phenyl and thiazolopyrazin-2-yloxy-phenyl amines as modulators of leukotriene A4 hydrolase” (Janssen Pharmaceutical NV, priority 2008, published 2011)
Where a name gives a salt, the structure may show the parent alone.

Columns and labels:
[1] = system: ionophore-induced LTB4 production; conditions: oral administration; cited from earlier work
[2] = system: ionophore-induced LTB4 production; conditions: oral administration; cited from earlier work; remark: listed apart in the source
colitis symptoms = conditions: eight weeks of treatment, cotton top tamarins; cited from earlier work
neutrophil influx = experiment: Murine arachidonic acid-induced inflammation model: neutrophil influx in ear, myeloperoxidase activity (% Inh. MPO); type: in vivo; conditions: Mus musculus, female Balb/c mice, 30 mg/kg oral gavage, ear biopsy 3 h after topical arachidonic acid, number of determinations in parentheses
Description: (§1) Assay 4: Murine Arachidonic Acid-Induced Inflammation Model
(§2) LTA4H inhibitor compounds of the present invention were dissolved in 20% cyclodextran/H2O at a concentration of 3 mg/mL. The solutions were administered by oral gavage to female Balb/c mice weighing approximately 20 grams each (0.2 mL per mouse, 30 mg of LTA4H inhibitor compound per kg). Sixty minutes after being administered an LTA4 inhibitor, each mouse received topical application of 20 μL of arachidonic acid (100 mg/mL in acetone) to the left ear and 20 μL of acetone only to the right ear. After 3 h, the mice were sacrificed, blood was withdrawn in heparinized syringes, and 8 mm ear biopsies were taken. Ear biopsies were weighed to determine edema and then frozen at −80° C. until needed for determination of neutrophil influx.
Neutrophil influx was quantified by measuring the activity of myeloperoxidase (MPO), a neutrophil-specific enzyme. The ear biopsies were homogenized in 0.5 mL extraction buffer (0.3 M sucrose, 0.22% (w/v) hexadecyl trimethyl ammonium bromide (CTAB), and 2.5 mM citrate prepared from 0.5 M citrate stock solution (pH 5.0)), in a Fast-Prep-24 (MP™) (40 seconds at 6 mps). Debris was removed by centrifugation at 14000×g for 10 min. Aliquots of 10 μL of the resulting supernatant were added to wells of a microtiter plate, along with 90-μL aliquots of dilution buffer (10 mM citrate, 0.22% CTAB), followed by addition of 20 μL TMB liquid substrate system (Sigma Chemical Co.) to each sample well. The microtiter plate contents were held at room temperature until the sample with the highest concentration of MPO reached an absorbance value of 0.4 at 650 nm. The reaction was stopped by addition of 50 μL 1 M H2SO4 to each sample well, and the myeloperoxidase activity in each sample was determined from the absorbance at 405 nm. The background value from the right ear, treated only with acetone, was subtracted from that for the left ear, treated with arachidonic acid in acetone, for each animal. The percent inhibition of neutrophil influx (% Inh. MPO) by compounds of the invention was determined by comparison to animals treated identically, except that the solution administered by oral gavage was devoid of inhibitor compound.
(§3) The number of determinations is indicated in parentheses following each value

[3] = system: LTB4 production by calcium ionophore-stimulated murine blood; experiment: LTB4 production by calcium ionophore-stimulated murine blood for LTA4H inhibitor activity; type: cell-based, CD-1 mice; conditions: Mus musculus; murine blood diluted 1 in 15, calcium ionophore A23187, LTB4 by immunoassay; read-out: IC50
How it was run: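 Heparinized CD-1 mouse blood pre-incubated with compound 15 min at 37° C, then stimulated with calcium ionophore A23187 (7 μg/mL final) for 30 min. LTB4 in supernatant measured by enzyme immunoassay; values are single or averaged determinations, with SD for n≥3.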

[4] = biological target: T1, recombinant human LTA4 hydrolase (rhLTA4H) (Homo sapiens, UniProt P09960); experiment: Recombinant human LTA4 hydrolase assay for LTA4 hydrolase inhibitor activity; type: biochemical; conditions: rhLTA4H, LTA4 substrate, LTB4 by immunoassay; single determination or average; read-out: IC50
T1 construct: made in house; host or cells: Spodoptera frugiperda (Sf-9) cells, recombinant baculovirus (pFastBac1)
T1 sequence (P09960 1-611): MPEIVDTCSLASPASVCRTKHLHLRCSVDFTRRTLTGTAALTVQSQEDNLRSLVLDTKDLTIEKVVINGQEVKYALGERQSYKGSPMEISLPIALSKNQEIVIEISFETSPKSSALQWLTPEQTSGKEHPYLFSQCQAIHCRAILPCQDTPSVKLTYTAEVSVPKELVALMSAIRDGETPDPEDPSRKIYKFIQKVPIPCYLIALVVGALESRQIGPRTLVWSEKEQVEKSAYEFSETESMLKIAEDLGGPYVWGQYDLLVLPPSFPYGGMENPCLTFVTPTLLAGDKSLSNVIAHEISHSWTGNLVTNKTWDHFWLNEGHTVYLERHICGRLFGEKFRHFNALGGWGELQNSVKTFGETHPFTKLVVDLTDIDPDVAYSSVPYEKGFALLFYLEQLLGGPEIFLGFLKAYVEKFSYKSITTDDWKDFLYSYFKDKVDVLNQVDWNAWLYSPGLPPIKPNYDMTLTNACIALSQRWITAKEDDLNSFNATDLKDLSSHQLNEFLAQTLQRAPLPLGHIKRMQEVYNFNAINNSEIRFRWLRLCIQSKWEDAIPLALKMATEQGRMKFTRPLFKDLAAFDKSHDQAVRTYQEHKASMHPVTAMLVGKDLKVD
How it was run: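 Recombinant human LTA4H from baculovirus-infected Sf-9 cells (10 ng) pre-incubated 10 min at rt with compound (10% DMSO in dilutions), then reacted with free-acid LTA4 for 30 min at rt. LTB4 measured by ELISA; IC50 by nonlinear regression. Values are single determinations or averages.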

[5] = system: ex vivo stimulated LTB4 production; experiment: Murine arachidonic acid-induced inflammation model: ex vivo stimulated LTB4 production (% Inh. LTB4); conditions: Mus musculus; female Balb/c mice, 30 mg/kg oral gavage; blood taken 3 h after arachidonic acid, ex vivo A23187 stimulation; number of determinations in parentheses
Description: as §1, §2
One hundred-microliter aliquots of heparinized blood were added to wells of a microtiter plate, along with equal volumes of RPMI-1640 medium, and calcium ionophore A23187 was added to each sample well (final concentration=[…]). The microtiter plate contents were incubated for 30 min at 37° C. in a humidified incubator. The reaction was terminated by centrifugation (833×g, 10 min at 4° C.). Supernatants were analyzed for LTB4 by a commercially available enzyme-linked immunoassay (Cayman Chemical Co.) in accordance with the manufacturer's instructions. The percent inhibition of ex vivo stimulated LTB4 production (% Inh. LTB4) was determined by comparison to animals treated identically except that the solution administered by oral gavage was devoid of inhibitor compound.
as §3

[6] = system: LTB4 production by calcium ionophore-stimulated human blood; experiment: LTB4 production by calcium ionophore-stimulated human blood for LTA4H inhibitor activity; type: cell-based; conditions: human blood diluted 1:1, calcium ionophore A23187, LTB4 by immunoassay; n in parentheses; read-out: IC50
Description: Assay 3: LTB4 Production by Calcium Ionophore-Stimulated Human Blood for LTA4H Inhibitor Activity
Human blood was collected from healthy donors in heparin-containing syringes. The blood was diluted 1:1 with RPMI-1640 medium, and 200-μL aliquots of the diluted blood were added to wells of a 96-well microtiter plate. LTA4H inhibitor test compounds were prepared at different concentrations in RPMI-1640 medium containing 1% DMSO, and 20 μL of each test solution was added to a well containing diluted whole blood (final DMSO concentration of 0.1%). After the microtiter plate contents were incubated for 15 min at 37° C. in a humidified incubator, calcium ionophore A23187 (Sigma Chemical Co., St. Louis, Mo.) was added to each sample well (final concentration=7 μg/mL). The incubation was continued under the same conditions for an additional 30 min to allow LTB4 formation. The reaction was terminated by centrifugation (833×g, 10 min at 4° C.), and supernatants were analyzed for LTB4 by a commercially available enzyme-linked immunoassay (Cayman Chemical Co.) according to the manufacturer's instructions. Positive controls, under essentially identical conditions but without addition of an inhibitor compound, and negative unstimulated controls, containing all assay components except calcium ionophore, were routinely run in each experiment. IC50 values for compounds tested in this assay were determined by nonlinear regression of the activity data at different compound concentrations using Graphpad Prism 4.0, one site binding competition, and are presented in Table 3. The number of determinations made is indicated in parentheses following each value.

Compound | inhibition of ionophore-induced LTB4 production in mouse blood ex vivo [1] | inhibition of ionophore-induced LTB4 production in rat peritoneum in vivo [2] | colitis symptoms (colitis symptoms) | inhibition in vivo at 30 mg/kg (neutrophil influx) | IC50 [3] | IC50 [4] | inhibition at 30 mg/kg [5] | IC50 [6]
CN(CCCOc1ccc(Cc2ccccc2)cc1)CCC(=O)O.Cl [SC57461] | caused inhibition | caused inhibition | significantly improved | – | – | – | – | –
CC(=O)N1CC2CN(Cc3ccc(Oc4nc5ncccc5s4)cc3)CC2C1 (stereo not shown) [Example 276, 2-{4-[(5-Acetylhexahydropyrrolo[3,4-c]pyrrol-2(1H)-yl)methyl]phenoxy}[1,3]thiazolo[4,5-b]pyridine] | – | – | – | 94.9% | 10 nM | 3 nM | 57.4% | –
CC(=O)N[C@@H]1C[C@H]2CC[C@@H](C1)N2CCc1ccc(Oc2nc3ncccc3s2)cc1 [Example 49, meso-N-[(3-exo)-8-{2-[4-([1,3]Thiazolo[4,5-b]pyridin-2-yloxy)phenyl]ethyl}-8-azabicyclo[3.2.1]oct-3-yl]acetamide] | – | – | – | 66% | 76 nM | 0.7 nM | 83% | –
c1cnc2nc(Oc3ccc(CCN4CCOCC4)cc3)sc2c1 [Example 59, 2-[4-(2-Morpholin-4-ylethyl)phenoxy][1,3]thiazolo[4,5-b]pyridine] | – | – | – | 89.9% | 19 nM | 9 nM | 92.7% | –
c1cnc2nc(Oc3ccc(CN4CCOCC4)cc3)sc2c1 [Example 86, 2-[4-(Morpholin-4-ylmethyl)phenoxy][1,3]thiazolo[4,5-b]pyridine] | – | – | – | 51.5% | 60 nM | 12 nM | 70.8% | –
OC[C@@H]1CCCN1Cc1ccc(Oc2nc3ncccc3s2)cc1 [Example 108, {(2S)-1-[4-([1,3]Thiazolo[4,5-b]pyridin-2-yloxy)benzyl]pyrrolidin-2-yl}methanol] | – | – | – | 71.4% | 8 nM | 2.4 nM | 79.8% | –
NC(=O)N1C[C@@H]2CC[C@H]1CN2Cc1ccc(Oc2nc3ncccc3s2)cc1 [Example 293, (1S,4S)-5-[4-([1,3]Thiazolo[4,5-b]pyridin-2-yloxy)benzyl]-2,5-diazabicyclo[2.2.2]octane-2-carboxamide formate] | – | – | – | – | 29 nM | 3 nM | – | 10 nM
NC(=O)N1C[C@@H]2C[C@H]1CN2CCOc1ccc(Oc2nc3ncccc3s2)cc1 [Example 15, (1S,4S)-5-{2-[4-([1,3]Thiazolo[4,5-b]pyridin-2-yloxy)phenoxy]ethyl}-2,5-diazabicyclo[2.2.1]heptane-2-carboxamide] | – | – | – | 47.7% | 310 nM | 29 ± 5.2 nM | 61.9% | –
NC(=O)C1CCN(Cc2ccc(Oc3nc4ncccc4s3)cc2)CC1 [Example 100, 1-[4-([1,3]Thiazolo[4,5-b]pyridin-2-yloxy)benzyl]piperidine-4-carboxamide] | – | – | – | 88.7% | 110 nM | 7.2 nM | 85.3% | –
CC(=O)N1C[C@@H]2C[C@H]1CN2Cc1ccc(Oc2nc3ncccc3s2)cc1 [Example 127, 1-{(1S,4S)-5-[4-([1,3]Thiazolo[4,5-b]pyridin-2-yloxy)benzyl]-2,5-diazabicyclo[2.2.1]hept-2-yl}ethanone] | – | – | – | 87.6% | 7.5 nM | 5 nM | 91.5% | –
CC(=O)N[C@H]1C[C@H]2CC[C@@H](C1)N2Cc1ccc(Oc2nc3ncc(F)cc3s2)cc1 [Example 288] | – | – | – | 94.6% | 104 nM | 15 nM | 61.7% | –
CC(=O)N[C@H]1C[C@H]2CC[C@@H](C1)N2Cc1ccc(Oc2nc3ncc(Cl)cc3s2)cc1 [Example 287, meso-endo-N-[8-{4-[(6-Chloro[1,3]thiazolo[4,5-b]pyridin-2-yl)oxy]benzyl}-8-azabicyclo[3.2.1]oct-3-yl]acetamide] | – | – | – | 86.7% | 110 nM | 3 nM | 89.8% | –
c1cnc2nc(Oc3ccc(CCN4CCCCC4)cc3)sc2c1 [Example 60, 2-[4-(2-Piperidin-1-ylethyl)phenoxy][1,3]thiazolo[4,5-b]pyridine] | – | – | – | 35.8% | 15 nM | 3 nM | 69.5% | –
c1cnc2nc(Oc3ccc(CN4CCCC4)cc3)sc2c1 [Example 84, 2-[4-(Pyrrolidin-1-ylmethyl)phenoxy][1,3]thiazolo[4,5-b]pyridine] | – | – | – | 72% | 39 nM | 2.1 nM | 53.9% | –
c1cnc2nc(Oc3ccc(OCCN4CCCCC4)cc3)sc2c1 [Example 10, 2-[4-(2-Piperidin-1-ylethoxy)phenoxy][1,3]thiazolo[4,5-b]pyridine] | – | – | – | 62.2% | 19 nM | 5 nM | 68% | –
